According to patent US11840537B2, “Preparation and application of a 5-bromoquinazoline derivative” (Hefei University of Technology, priority 2020, dated 2023):
Structures can show the parent of a compound that is named as a salt.

Columns and labels:
Type in all cases: cell-based
[1] = tested on: hepatoma carcinoma cell SMMC-7721; assay: Anti-cancer activity, hepatoma carcinoma cell SMMC-7721; details: liver cancer (SMMC-7721)
breast cancer cell MCF-7 = assay: Anti-cancer activity, breast cancer cell MCF-7; details: breast cancer cells (MCF-7)
leukemia HL-60 = assay: Anti-cancer activity, leukemia HL-60 cells
colon cancer SW480 = assay: Anti-cancer activity, colon cancer SW480 cells

Measured: strong inhibitory activity (ED50)

COC(=O)C1(Nc2nc(=O)[nH]c3ccc(Br)cc23)c2cc(Br)ccc2NC12C(=O)Nc1ccc(Br)cc12 (stereo not shown) [compound (I), 3-[5, 5′-dibromo-3-((6-bromo-2-oxo-1,2-dihydroquinazoline-4-amino)-2′-oxo (2,3′-spirobisindole)]methyl formate]
< 10.0 µg/mL: all assays above
